Experimental data: publication PMC11500415, “Chemical inhibition of stomatal differentiation by perturbation of the master-regulatory bHLH heterodimer via an ACT-Like domain” (Nature Communications, 2024)
“And” between values parts separate entries of the source, which are not always exact repeats. Equal entries are not always repeated.

Columns and labels:
stomatal movement = test system: stomatal movement; set-up: method as in PMID 35042960; details: previous chemical screens and SAR studies; cited from earlier work
SCRM-SPCH heterodimer = molecular target: T1, SCRM-SPCH heterodimer (Arabidopsis thaliana, UniProt Q700C7); assay type: cell-based; details: STOMI-treated
T1 construct: heterodimerization of SCRM with full-length SPCH, MUTE, or FAMA in the context of the plant cells; combinations of split YFP constructs fused to the full-length stomatal bHLH proteins; nYFP (N terminus of EYFP, 174 amino acids); cYFP (C terminus of EYFP, 64 amino acids); expressed in transfected cells; host or cells: Nicotiana benthamiana leaves (Agrobacterium infiltration)
T1 sequence (Q700C7 1-364): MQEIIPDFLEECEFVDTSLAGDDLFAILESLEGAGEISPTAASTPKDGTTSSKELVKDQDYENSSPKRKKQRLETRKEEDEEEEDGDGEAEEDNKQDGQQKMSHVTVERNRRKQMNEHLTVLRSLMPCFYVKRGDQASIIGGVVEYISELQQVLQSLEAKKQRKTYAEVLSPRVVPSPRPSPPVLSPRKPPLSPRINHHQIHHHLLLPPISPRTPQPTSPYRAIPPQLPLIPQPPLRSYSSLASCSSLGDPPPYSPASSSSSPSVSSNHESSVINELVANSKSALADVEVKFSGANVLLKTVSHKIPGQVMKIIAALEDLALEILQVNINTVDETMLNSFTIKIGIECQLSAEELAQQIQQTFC
Text: (§1) For ratiometric BiFC assays, the cDNAs of SPCH, MUTE, and FAMA were cloned into the 35S CaMV promoter-driven destination vector pSPYNE, which contains the N terminus of the EYFP protein (nYFP-174 amino acids), while the cDNA of SCRM and SCRM2 was inserted into pSPYCE, which contains the C terminus of the EYFP protein (cYFP-64 amino acids) (see Supplementary Table 5 for detailed information of the constructs). The constructs were then transformed into Agrobacterium tumefaciens strain GV3101. The Agrobacterium was resuspended in infiltration buffer (10 mM MgCl2, 10 mM 2-(N-morpholino)ethanesulfonic acid [pH 5.6], and 150 µM acetosyringone). Bacterial culture densities were adjusted to a final optical density (OD600) of 1.0, and the cell suspensions were incubated at room temperature for 4 hours prior to infiltration. Equal volumes of cultures carrying the corresponding complementary pair of BiFC constructs (YFPn and YFPc), along with CaMV35S::Histone H2B-mScarlet-I3 and the silencing suppressor plasmid p19 (a gift from Dr. Sir David Baulcombe) were mixed and then co-infiltrated into 4-week-old N. benthamiana leaves. The infiltrated N. benthamiana leaves were incubated at 25 °C for 2 days. Subsequently, leaf discs were cut out and cultured in mock or in liquid 1/2 MS media in mock (DMSO) or 100 µM Stomidazolone for 1 day. Confocal imaging of N. benthamiana leaves was performed using a Leica SP8 confocal microscope using a 20X objective lens (Leica Microsystems), simultaneously capturing YFP (excitation at 518 nm and emission at 530 nm) and mScarlet-I3 (excitation at 569 nm and emission at 600 nm) differential interference contrast channels.

SCRM2-SPCH heterodimer = molecular target: T2, SCRM2-SPCH heterodimer (Arabidopsis thaliana, UniProt Q700C7); experiment: Ratiometric BiFC in N. benthamiana leaves; assay type: cell-based; details: SPCH-SCRM2 pair, STOMI-treated, rescaled, average of 20; DMSO 0.870846
T2 construct: heterodimerization of SCRM with full-length SPCH, MUTE, or FAMA in the context of the plant cells; we performed rBiFC assays using full-length SCRM2; nYFP (N terminus of EYFP, 174 amino acids); cYFP (C terminus of EYFP, 64 amino acids); expressed in transfected cells; host or cells: Nicotiana benthamiana leaves (Agrobacterium infiltration)
Text: as §1

SCRM2-MUTE heterodimer = molecular target: T3, SCRM2-MUTE heterodimer (Arabidopsis thaliana, UniProt Q9M8K6); experiment: Ratiometric BiFC in N. benthamiana leaves; assay type: cell-based; details: MUTE-SCRM2 pair, STOMI-treated, rescaled, average of 20; DMSO 0.692877
T3 construct: heterodimerization of SCRM with full-length SPCH, MUTE, or FAMA in the context of the plant cells; nYFP (N terminus of EYFP, 174 amino acids); expressed in transfected cells; host or cells: Nicotiana benthamiana leaves (Agrobacterium infiltration)
Text: as §1

SCRM-FAMA heterodimer = molecular target: T4, SCRM-FAMA heterodimer (Arabidopsis thaliana, UniProt Q56YJ8); experiment: Ratiometric BiFC in N. benthamiana leaves; assay type: cell-based; details: BiFC FAMA+SCRM, STOMI-treated, individual measurements
T4 construct: heterodimerization of SCRM with full-length SPCH, MUTE, or FAMA in the context of the plant cells; combinations of split YFP constructs fused to the full-length stomatal bHLH proteins; nYFP (N terminus of EYFP, 174 amino acids); cYFP (C terminus of EYFP, 64 amino acids); expressed in transfected cells; host or cells: Nicotiana benthamiana leaves (Agrobacterium infiltration)
T4 sequence (Q56YJ8 1-414): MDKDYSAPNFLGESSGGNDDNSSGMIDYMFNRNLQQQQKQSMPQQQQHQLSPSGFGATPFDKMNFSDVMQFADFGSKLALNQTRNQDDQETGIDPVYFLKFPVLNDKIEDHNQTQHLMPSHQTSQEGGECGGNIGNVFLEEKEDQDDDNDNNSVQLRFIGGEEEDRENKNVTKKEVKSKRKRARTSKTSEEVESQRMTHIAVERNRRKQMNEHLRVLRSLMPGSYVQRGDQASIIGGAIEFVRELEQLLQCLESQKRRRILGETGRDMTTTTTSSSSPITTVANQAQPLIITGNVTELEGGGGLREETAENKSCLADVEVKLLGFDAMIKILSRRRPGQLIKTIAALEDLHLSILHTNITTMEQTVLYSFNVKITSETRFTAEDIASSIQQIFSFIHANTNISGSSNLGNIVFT
Text: as §1

SCRM2-FAMA heterodimer = molecular target: T5, SCRM2-FAMA heterodimer (Arabidopsis thaliana, UniProt Q56YJ8); experiment: Ratiometric BiFC in N. benthamiana leaves; assay type: cell-based; details: FAMA-SCRM2 pair, STOMI-treated, rescaled, average of 20; DMSO 0.813227
T5 construct: heterodimerization of SCRM with full-length SPCH, MUTE, or FAMA in the context of the plant cells; we performed rBiFC assays using full-length SCRM2; nYFP (N terminus of EYFP, 174 amino acids); cYFP (C terminus of EYFP, 64 amino acids); expressed in transfected cells; host or cells: Nicotiana benthamiana leaves (Agrobacterium infiltration)
Text: as §1

SCRM-MUTE heterodimer = molecular target: T6, SCRM-MUTE heterodimer (Arabidopsis thaliana, UniProt Q9M8K6); experiment: Ratiometric BiFC in N. benthamiana leaves; assay type: cell-based; details: BiFC MUTE+SCRM, STOMI-treated, individual measurements
T6 construct: expressed in transfected cells; host or cells: yeast strain AH109
T6 sequence (Q9M8K6 1-202): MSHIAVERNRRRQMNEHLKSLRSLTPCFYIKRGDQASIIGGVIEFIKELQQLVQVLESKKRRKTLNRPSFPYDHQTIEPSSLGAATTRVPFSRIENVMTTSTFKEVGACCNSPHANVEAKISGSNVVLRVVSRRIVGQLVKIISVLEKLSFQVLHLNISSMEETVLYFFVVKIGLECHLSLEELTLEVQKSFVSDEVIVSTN
Text: as §1

empty+SCRM (control) = molecular target: T7, empty+SCRM (control) (Arabidopsis thaliana, UniProt Q9LSE2); experiment: Ratiometric BiFC, control empty+SCRM; assay type: cell-based; details: STOMI-treated, individual measurements
T7 construct: split YFP constructs fused to the full-length stomatal bHLH proteins; expressed in transfected cells; host or cells: Nicotiana benthamiana leaves (Agrobacterium infiltration)
T7 sequence (Q9LSE2 1-494): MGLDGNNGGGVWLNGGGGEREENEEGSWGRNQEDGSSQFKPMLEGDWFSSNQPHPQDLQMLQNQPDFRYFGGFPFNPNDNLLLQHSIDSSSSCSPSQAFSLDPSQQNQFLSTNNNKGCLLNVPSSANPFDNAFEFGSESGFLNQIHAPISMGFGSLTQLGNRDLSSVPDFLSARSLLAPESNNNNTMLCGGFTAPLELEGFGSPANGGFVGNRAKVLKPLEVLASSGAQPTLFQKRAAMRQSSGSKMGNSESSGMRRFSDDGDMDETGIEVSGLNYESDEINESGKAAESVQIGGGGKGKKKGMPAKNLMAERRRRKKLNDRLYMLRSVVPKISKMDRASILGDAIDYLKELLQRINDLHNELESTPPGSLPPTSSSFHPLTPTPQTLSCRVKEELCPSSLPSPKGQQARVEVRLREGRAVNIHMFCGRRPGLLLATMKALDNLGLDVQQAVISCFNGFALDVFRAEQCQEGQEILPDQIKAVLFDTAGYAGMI

[1] = BiFC SPCH+SCRM, individual measurements

Structure (SMILES)	effect on stomatal movement (in words) (stomatal movement)	YFP (SCRM-SPCH heterodimer; [1])	mScarlet (SCRM-SPCH heterodimer; [1])	BiFC YFP/mScarlet signal intensity ratio, average (SCRM-SPCH heterodimer; SPCH-SCRM pair, rescaled, average of 20, DMSO 0.999748)	BiFC YFP/mScarlet signal intensity ratio, average (SCRM2-SPCH heterodimer)	BiFC YFP/mScarlet signal intensity ratio, average (SCRM2-MUTE heterodimer)	YFP (SCRM-FAMA heterodimer)	YFP/mScarlet (SCRM-FAMA heterodimer)	mScarlet (SCRM-FAMA heterodimer)	BiFC YFP/mScarlet signal intensity ratio, average (SCRM2-FAMA heterodimer)	YFP (SCRM-MUTE heterodimer)	YFP/mScarlet (SCRM-MUTE heterodimer)	mScarlet (SCRM-MUTE heterodimer)	YFP (empty+SCRM (control))	YFP/mScarlet (empty+SCRM (control))	mScarlet (empty+SCRM (control))
O=S(=O)(c1ccccc1)N(c1oc(-c2ccccc2)nc1-c1ccccc1)S(=O)(=O)c1ccccc1 [SIM1]	inhibit stomatal movement															
O=C1C(c2ccccc2)=NC(NS(=O)(=O)c2ccccc2)(c2ccccc2)N1S(=O)(=O)c1ccccc1 (racemic) [STOMI]		42.813 and 234.339 and 61.532 and 61.417 and 224.742 and 142.963	36.031 and 235.498 and 75.919 and 70.723 and 231.024 and 153.918	0.9445	0.1468	0.1063	186.917 and 54.749 and 197.322 and 78.346 and 117.223 and 50.688	0.9773 and 1.064 and 0.9455 and 1.191 and 0.9038 and 0.8169	191.252 and 51.452 and 208.697 and 65.781 and 129.694 and 62.052	0.1443	1.16E+01 and 3.104 and 3.249 and 11.738 and 9.681 and 6.858	0.2554 and 0.01703 and 0.0181 and 0.2123 and 0.2385 and 0.1574	45.576 and 182.295 and 179.515 and 55.282 and 40.598 and 43.561	0.095 and 0.409 and 0 and 0.026 and 5.60E-04 and 0.042	0.0009064 and 0.01087 and 0 and 0.0008066 and 3.5039e-6 and 0.000976	104.805 and 37.637 and 55.755 and 32.234 and 159.765 and 43.034
